Data on 2 compounds can be found in patent publication US10947289B2, “Glyco-modified atrial natriuretic peptide” (priority 2013, dated 2021).

The experiment deals with T1, human GC-A (Homo sapiens, UniProt P16066).
T1 construct: expressed in transfected cells; host or cells: CHO cells
T1 sequence (P16066 33-1061): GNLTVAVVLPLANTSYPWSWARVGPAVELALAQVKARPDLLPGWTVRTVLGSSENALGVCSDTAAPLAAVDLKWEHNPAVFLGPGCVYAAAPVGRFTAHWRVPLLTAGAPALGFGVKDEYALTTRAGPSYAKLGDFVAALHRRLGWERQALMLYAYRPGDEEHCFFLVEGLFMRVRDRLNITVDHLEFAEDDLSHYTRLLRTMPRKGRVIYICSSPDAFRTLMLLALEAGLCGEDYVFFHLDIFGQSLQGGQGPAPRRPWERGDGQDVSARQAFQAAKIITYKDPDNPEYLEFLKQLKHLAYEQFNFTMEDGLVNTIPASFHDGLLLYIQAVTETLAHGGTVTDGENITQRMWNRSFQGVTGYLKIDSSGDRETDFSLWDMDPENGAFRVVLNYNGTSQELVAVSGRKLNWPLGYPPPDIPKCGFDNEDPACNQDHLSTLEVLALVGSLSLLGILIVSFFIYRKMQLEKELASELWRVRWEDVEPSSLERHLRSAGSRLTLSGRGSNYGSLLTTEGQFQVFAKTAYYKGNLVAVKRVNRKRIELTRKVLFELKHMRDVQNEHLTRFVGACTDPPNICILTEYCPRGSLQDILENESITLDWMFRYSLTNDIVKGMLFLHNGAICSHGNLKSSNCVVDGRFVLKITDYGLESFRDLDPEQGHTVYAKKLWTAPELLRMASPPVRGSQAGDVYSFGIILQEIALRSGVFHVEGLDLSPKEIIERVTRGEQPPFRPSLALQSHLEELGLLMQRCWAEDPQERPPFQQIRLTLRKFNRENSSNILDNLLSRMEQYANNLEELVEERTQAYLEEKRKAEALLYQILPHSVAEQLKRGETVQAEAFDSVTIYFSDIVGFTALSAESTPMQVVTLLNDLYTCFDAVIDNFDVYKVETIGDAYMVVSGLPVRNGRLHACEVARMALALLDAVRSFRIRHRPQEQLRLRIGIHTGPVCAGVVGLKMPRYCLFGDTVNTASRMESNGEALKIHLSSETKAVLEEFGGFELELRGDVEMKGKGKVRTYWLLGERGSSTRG
The experiment can be described thus: cGMP elevating activity in CHO/human GC-A cells (Test Example 1). It is filed as cell-based. Here is the method:
The cGMP elevating activity of each modified peptide prepared in Example 2 was measured by the following method:
CHO/human GC-A cells, which are CHO cells constitutively expressing human GC-A, were suspended at 2×10^5 cells/ml in α-MEM, 10% FBS, and 1% penicillin-streptomycin, inoculated at 20 μl/well (4×10^3 cells/well) onto a 384-well plate (Corning, 3826), and cultured overnight in a CO2 incubator. On the next day, the medium was removed from this plate, and then, 1.6 mM IBMX/KRB buffer was added thereto at 10 μl/well. The mixture was stirred on a plate shaker and then incubated at room temperature for 10 minutes. […] The mixture was stirred on a plate shaker and then incubated for 15 minutes in a CO2 incubator. Thereafter, a lysis buffer (50 mM phosphate buffer, pH 7.0, and 1% Triton X-100) was added thereto at 5 μl/well. The cells were lysed by stirring for 10 minutes on a plate shaker. Subsequently, the cGMP levels in the cell lysates were measured by use of a cGMP kit (manufactured by Cisbio Bioassays). Specifically, to a 384-well plate (Greiner, 784076), 5 μl/well of a diluent attached to the kit, 5 μl/well of the cell lysate, 5 μl/well of cGMP-d2, and 5 μl/well of anti cGMP-Cryptate were added. The mixture was stirred on a plate shaker and then incubated overnight at 4° C. in the dark, followed by the measurement of homogeneous time-resolved fluorescence using RubyStar (manufactured by BMG LABTECH JAPAN Ltd.). The activity value (T/C) of the test substance at each concentration was calculated when the activity value of a well supplemented with only a solvent was defined as 0 and the activity value of a well supplemented with 1 nM ANP was defined as 1.

One may read the EC50 as the concentration at which the effect is half-maximal. Turning to `CC[C@H](C)[C@@H]1NC(=O)[C@H](CCCNC(=N)N)NC(=O)[C@H](CC(=O)O)NC(=O)[C@H](CCSC)NC(=O)[C@H](CCCNC(=N)N)NC(=O)CNC(=O)CNC(=O)[C@H](Cc2ccccc2)NC(=O)[C@@H](NC(=O)[C@H](CO)NC(=O)[C@H](CO)NC(=O)[C@H](CCCNC(=N)N)NC(=O)[C@H](CCCNC(=N)N)NC(=O)[C@H](CC(C)C)NC(=O)[C@H](CO)NC(=O)CCOCCOCCOCCOCCNC(=O)CO[C@@H]2O[C@H](CO)[C@@H](O[C@@H]3O[C@H](CO)[C@@H](O[C@@H]4O[C@H](CO[C@H]5O[C@H](CO)[C@@H](O)[C@H](O)[C@@H]5O[C@@H]5O[C@H](CO)[C@@H](O[C@@H]6O[C@H](CO[C@]7(C(=O)O)C[C@H](O)[C@@H](NC(C)=O)[C@H]([C@H](O)[C@H](O)CO)O7)[C@H](O)[C@H](O)[C@H]6O)[C@H](O)[C@H]5NC(C)=O)[C@@H](O)[C@H](O[C@H]5O[C@H](CO)[C@@H](O)[C@H](O)[C@@H]5O[C@@H]5O[C@H](CO)[C@@H](O[C@@H]6O[C@H](CO[C@]7(C(=O)O)C[C@H](O)[C@@H](NC(C)=O)[C@H]([C@H](O)[C@H](O)CO)O7)[C@H](O)[C@H](O)[C@H]6O)[C@H](O)[C@H]5NC(C)=O)[C@@H]4O)[C@H](O)[C@H]3NC(C)=O)[C@H](O)[C@H]2NC(C)=O)CSSC[C@@H](C(=O)N[C@@H](CC(N)=O)C(=O)N[C@@H](CO)C(=O)N[C@@H](Cc2ccccc2)C(=O)N[C@@H](CCCNC(=N)N)C(=O)N[C@@H](Cc2ccc(O)cc2)C(=O)NCCOCCOCCOCCOCCC(=O)NCCO[C@@H]2O[C@H](CO)[C@@H](O[C@@H]3O[C@H](CO)[C@@H](O[C@@H]4O[C@H](CO[C@H]5O[C@H](CO)[C@@H](O)[C@H](O)[C@@H]5O[C@@H]5O[C@H](CO)[C@@H](O[C@@H]6O[C@H](CO[C@]7(C(=O)O)C[C@H](O)[C@@H](NC(C)=O)[C@H]([C@H](O)[C@H](O)CO)O7)[C@H](O)[C@H](O)[C@H]6O)[C@H](O)[C@H]5NC(C)=O)[C@@H](O)[C@H](O[C@H]5O[C@H](CO)[C@@H](O)[C@H](O)[C@@H]5O[C@@H]5O[C@H](CO)[C@@H](O[C@@H]6O[C@H](CO[C@]7(C(=O)O)C[C@H](O)[C@@H](NC(C)=O)[C@H]([C@H](O)[C@H](O)CO)O7)[C@H](O)[C@H](O)[C@H]6O)[C@H](O)[C@H]5NC(C)=O)[C@@H]4O)[C@H](O)[C@H]3NC(C)=O)[C@H](O)[C@H]2NC(C)=O)NC(=O)CNC(=O)[C@H](CC(C)C)NC(=O)CNC(=O)[C@H](CO)NC(=O)[C@H](CCC(N)=O)NC(=O)[C@H](C)NC(=O)CNC1=O` [Compound 2-24, SG-PEG(3)-hANP(1-28)-PEG(3)-SG], a half-maximal response (EC50) required 540 pM.
In the case of `CC[C@H](C)[C@@H]1NC(=O)[C@H](CCCNC(=N)N)NC(=O)[C@H](CC(=O)O)NC(=O)[C@H](CCSC)NC(=O)[C@H](CCCNC(=N)N)NC(=O)CNC(=O)CNC(=O)[C@H](Cc2ccccc2)NC(=O)[C@@H](NC(=O)[C@H](CO)NC(=O)[C@H](CO)NC(=O)[C@H](CCCNC(=N)N)NC(=O)[C@H](CCCNC(=N)N)NC(=O)[C@H](CC(C)C)NC(=O)[C@H](CO)NC(=O)CCOCCOCCOCCOCCOCCOCCOCCOCCOCCOCCOCCOCCNC(=O)CCOCCOCCOCCOCCOCCOCCOCCOCCOCCOCCOCCOCCNC(=O)[C@H](CC(=O)N[C@@H]2O[C@H](CO)[C@@H](O[C@@H]3O[C@H](CO)[C@@H](O[C@@H]4O[C@H](CO[C@H]5O[C@H](CO)[C@@H](O)[C@H](O)[C@@H]5O[C@@H]5O[C@H](CO)[C@@H](O[C@@H]6O[C@H](CO[C@]7(C(=O)O)C[C@H](O)[C@@H](NC(C)=O)[C@H]([C@H](O)[C@H](O)CO)O7)[C@H](O)[C@H](O)[C@H]6O)[C@H](O)[C@H]5NC(C)=O)[C@@H](O)[C@H](O[C@H]5O[C@H](CO)[C@@H](O)[C@H](O)[C@@H]5O[C@@H]5O[C@H](CO)[C@@H](O[C@@H]6O[C@H](CO[C@]7(C(=O)O)C[C@H](O)[C@@H](NC(C)=O)[C@H]([C@H](O)[C@H](O)CO)O7)[C@H](O)[C@H](O)[C@H]6O)[C@H](O)[C@H]5NC(C)=O)[C@@H]4O)[C@H](O)[C@H]3NC(C)=O)[C@H](O)[C@H]2NC(C)=O)NC(=O)CO[C@@H]2O[C@H](CO)[C@@H](O[C@@H]3O[C@H](CO)[C@@H](O[C@@H]4O[C@H](CO[C@H]5O[C@H](CO)[C@@H](O)[C@H](O)[C@@H]5O[C@@H]5O[C@H](CO)[C@@H](O[C@@H]6O[C@H](CO[C@]7(C(=O)O)C[C@H](O)[C@@H](NC(C)=O)[C@H]([C@H](O)[C@H](O)CO)O7)[C@H](O)[C@H](O)[C@H]6O)[C@H](O)[C@H]5NC(C)=O)[C@@H](O)[C@H](O[C@H]5O[C@H](CO)[C@@H](O)[C@H](O)[C@@H]5O[C@@H]5O[C@H](CO)[C@@H](O[C@@H]6O[C@H](CO[C@]7(C(=O)O)C[C@H](O)[C@@H](NC(C)=O)[C@H]([C@H](O)[C@H](O)CO)O7)[C@H](O)[C@H](O)[C@H]6O)[C@H](O)[C@H]5NC(C)=O)[C@@H]4O)[C@H](O)[C@H]3NC(C)=O)[C@H](O)[C@H]2NC(C)=O)CSSC[C@@H](C(=O)N[C@@H](CC(N)=O)C(=O)N[C@@H](CO)C(=O)N[C@@H](Cc2ccccc2)C(=O)N[C@@H](CCCNC(=N)N)C(=O)N[C@@H](Cc2ccc(O)cc2)C(=O)O)NC(=O)CNC(=O)[C@H](CC(C)C)NC(=O)CNC(=O)[C@H](CO)NC(=O)[C@H](CCC(N)=O)NC(=O)[C@H](C)NC(=O)CNC1=O` [Compound 2-28, SG-(SG-)Asn-PEG(11)-PEG(11)-hANP(1-28)], the concentration giving a half-maximal response (EC50) amounted to 310 pM.
